Legend:
Homo sapiens [1] = species: Homo sapiens; test: Binding affinity to human beta amyloid protein 1-28 from Alzheimers disease patient
Homo sapiens [2] = species: Homo sapiens; test: Binding affinity to human beta amyloid protein 1-40 from Alzheimers disease patient

Kb (Homo sapiens [1]): 1.85 10^6/M
Kb (Homo sapiens [2]): 0.5 10^6/M
Compound: Cc1ccc2c(c1)sc(-c1ccc(N(C)C)cc1)[n+]2C
